Test results: patent US5250541A, “Kynurenic acid derivatives, their preparation and pharmaceutical compositions containing them” (Fidia S.p.A., priority 1989, dated 1993)
Where two headings read alike, the source gives them in different places. Blank lines part the entries; values can stand above or below the molecule they belong to.

Columns and labels:
[1] = molecular target: T1, glycine recognition site of the NMDA receptor-ion channel complex (cortical membranes), UniProt Q05586); assay: displacement of labelled glycine from cortical membranes; type: binding; details: cortical membranes; read-out: concentration displacing 50% of labelled glycine from its binding sites
T1 construct: from tissue
Excerpt: (§1) 1) they displace labelled glycine from cortical membranes with an EC50 value 5-10 times lower than that of kynurenate;

[2] = system: NMDA receptors present on guinea-pig ileum; assay: antagonism of glutamate or NMDA actions on guinea-pig ileum; type: cell-based; details: guinea-pig terminal ileum; read-out: concentration antagonising 50% of glutamate or NMDA actions
Excerpt: 2) they antagonise in […] way the glutamate effect on NMDA receptors present on guinea-pig ileum: on this test their effect is competitively antagonized by glycine.

[3] = system: mouse cerebral cortex slices; assay: antagonism of glutamate or NMDA actions on mouse cerebral cortex slices; type: cell-based; details: brain slices, read-out: concentration antagonising 50% of glutamate or NMDA actions
Excerpt: (§2) The compounds I were also active in mouse cerebral cortex slices according to Proc. Natl. Acad. Sci. USA 85; 6547-6550--1988, in the prevention of glutamate toxicity in cultured cells and in the prevention of NMDA induced convulsions in mice.

[4] = system: cultured cells; assay: prevention of glutamate toxicity in cultured cells; type: cell-based
Excerpt: as §2

[5] = system: NMDA receptors present on guinea-pig ileum; details: guinea-pig myenteric plexus; cited from earlier work
[6] = molecular target: T2, glycine recognition site of the NMDA receptor-ion channel complex (cortical membranes) (Homo sapiens, UniProt Q05586); assay: displacement of labelled glycine from cortical membranes; type: binding
T2 construct: from tissue
Excerpt: as §1

- IC50 [1]: 1 µM
- IC50 [2]: 5 µM
- IC50 [3]: 5 µM
Structure (SMILES): O=C(O)c1cc(S)c2ccc(Cl)cc2n1 [7-chloro-4-thiokynurenic acid, 7-chloro-4-thio-quinoline-2-carboxylic acid]
- concentration antagonising the glutamate neurotoxicity [4]: 0.08 µM

Structure (SMILES): O=C(O)c1cc(=O)c2ccccc2[nH]1 [kynurenic acid]
- antagonistic activity of the glutamate effect [5]: antagonistic activity of the glutamate effect

Structure (SMILES): O=C(O)c1cc(S)c2ccccc2n1 [thiokynurenic acid, 4-thio-quinoline-2-carboxylic (thiokynurenic) acid]
- mode of action at the glycine receptors [6]: competitive antagonists of the glycine receptors
- mode of action at the glycine receptors ([6]; listed as 4thiokynurenic acid): competitive antagonists of a particular kind of glycine receptors
